Data from PubChem BioAssay AID1963836 (Molecular Pharmacology Branch, DTP, NCI, 2024).

System: 857933-349-R-J2-PDC complex spheroid viability
Assay: Anticancer human tumor 857933-349-R-J2-PDC patient-derived colon adenocarcinoma cell line growth inhibition [POLQ]
Details: for IC50: curve of first compound; for viability, T/C: stronger effect = lower value
Method: Multicellular complex tumor spheroid response to Polymerase (POL) inhibitors (novobiocin, ART-558, RP6685) in combination with a variety of drugs and investigational agents in selected tumor cell lines
The POL inhibitors (novobiocin, ART-558, and RP6685) were evaluated both individually and in combination with standard of care and investigational anticancer small molecules within a complex spheroid model of solid tumors. . Complex spheroids include a stromal component modeled by human endothelial cells (HUVEC) and fibroblasts modeled by human mesenchymal stem cells (MSCs). The concentration ranges selected for each drug and investigational agent were based upon clinically achievable concentrations if the clinical Cmax of the agent was known.
Compounds. The drugs and investigational agents: novobiocin (NSC847541), ART-558 (NSC835418), RP-6685 (NSC848927), peposertib (NSC802822), ceralasertib (NSC780249), elimusertib (NSC800525), camonsertib (NSC841442), AZD-1390 (NSC803789), olaparib (NSC753686), talazoparib (NSC767125), rucaparib (NSC756644), sotorasib (NSC818433), MRTX-1133 (NSC836407), SN-38 (NSC673596), topotecan (NSC609699), epotoside (NSC141540), doxorubicin (NSC123127), gemcitabine (NSC613327), 5-fluorouracil (NSC19893), paclitaxel (NSC125973), vemurafenib (NSC761431), MSA-2 (NSC828583), SN-011 (NSC837082), adavosertib (NSC754352), prexasertib (NSC758257), carboplatin (NSC241240) and oxaliplatin (NSC266046), were obtained from the National Cancer Institute (NCI) Developmental Therapeutics Program Chemical Repository (21). The FDA-approved anticancer drug set is available from the Developmental Therapeutics Program at https://dtp.cancer.gov/organization/dscb/obtaining/. […] The stock solutions were prepared in dimethyl sulfoxide (DMSO, Sigma-Aldrich, St. Louis, MO, cat. D2650), except for the platinum compounds which were prepared in saline (Quality Biological, Gaithersburg, MD, cat. 114-055-101), at 800-fold the tested concentration and stored at -70 degrees C prior to their use. All drugs and investigational agents were tested over a range starting from a high concentration at or near the clinical Cmax and decreasing in half-log increments. If the clinical Cmax for an agent had not been determined, the highest concentration tested was 10 microM, except for SN-38, which was tested at a high concentration of 1 microM.
Cell Culture. All cells were maintained in an incubator at 37 degrees C and 5% CO2 with 95% humidity. The PDC lines were cultured according to standard operating procedures established by the NCI PDMR (https://pdmr.cancer.gov). Table 3 of the manuscript, lists the cell lines along with the number of the three cell types plated to form the mct-spheroids and media for tumor cell growth. After thawing, all PDC lines, except 997537-175-T-J1-PDC and 415267-285-R-J2-PDC, were cultured in Matrigel-coated flasks prepared with a working solution of 1X Ham's F-12 nutrient mix, without supplementation (Thermo Fisher Scientific, cat. 11765054), 100 U/mL penicillin-streptomycin (Thermo Fisher Scientific, cat. 15140122), and 2.5% Matrigel (Corning Inc., Corning, NY, cat. 354248) for the first three passages. The two PDC lines 997537-175-T-J1-PDC and 415267-285-R-J2-PDC were cultured on uncoated flasks. The 857933-349-R-J2-PDC line was cultured in 6C/Colon 1B media containing advanced DMEM/F-12 (Thermo Fisher Scientific, cat. 12634028), 10 mM HEPES (Thermo Fisher Scientific, cat. 15630080), 1X GlutaMAX supplement (Thermo Fisher Scientific, cat. 35050061), 0.1 mg/mL primocin (InvivoGen, San Diego, CA, cat. ant-pm-2), 10% defined fetal bovine serum, heat inactivated (HyClone Laboratories Inc., Logan, UT, cat. SH30070.03HI), 50% L-WRN conditioned media (ATCC, cat. CRL-3276), 1.25 mM N-Acetyl-L-cysteine (Sigma-Aldrich, cat. A9165), 10 mM nicotinamide (Sigma-Aldrich, cat. N0636), 1X B-27 supplement (Thermo Fisher Scientific, cat. 17504044), 1X N-2 supplement (Thermo Fisher Scientific, cat. […]

[1] = second compound 0.0316 µM, first compound 0.0316 µM
[2] = second compound 0.0316 µM, first compound 0.1 µM
[3] = second compound 0.0316 µM, first compound 0.316 µM
[4] = second compound 0.0316 µM, first compound 1 µM
[5] = second compound 0.0316 µM, first compound 3.16 µM
[6] = second compound 0.0316 µM, first compound 10 µM
[7] = second compound 0.1 µM, first compound 0.0316 µM
[8] = second compound 0.1 µM, first compound 0.1 µM
[9] = second compound 0.1 µM, first compound 0.316 µM
[10] = second compound 0.1 µM, first compound 1 µM
[11] = second compound 0.1 µM, first compound 3.16 µM
[12] = second compound 0.1 µM, first compound 10 µM
[13] = second compound 0.316 µM, first compound 0.0316 µM
[14] = second compound 0.316 µM, first compound 0.1 µM
[15] = second compound 0.316 µM, first compound 0.316 µM
[16] = second compound 0.316 µM, first compound 1 µM
[17] = second compound 0.316 µM, first compound 3.16 µM
[18] = second compound 0.316 µM, first compound 10 µM
[19] = second compound 1 µM, first compound 0.0316 µM
[20] = second compound 1 µM, first compound 0.1 µM
[21] = second compound 1 µM, first compound 0.316 µM
[22] = second compound 1 µM, first compound 1 µM
[23] = second compound 1 µM, first compound 3.16 µM
[24] = second compound 1 µM, first compound 10 µM
[25] = second compound 3.16 µM, first compound 0.0316 µM
[26] = second compound 3.16 µM, first compound 0.1 µM
[27] = second compound 3.16 µM, first compound 0.316 µM
[28] = second compound 3.16 µM, first compound 1 µM
[29] = second compound 3.16 µM, first compound 3.16 µM
[30] = second compound 3.16 µM, first compound 10 µM
[31] = second compound 10 µM, first compound 0.0316 µM
[32] = second compound 10 µM, first compound 0.1 µM
[33] = second compound 10 µM, first compound 0.316 µM
[34] = second compound 10 µM, first compound 1 µM
[35] = second compound 10 µM, first compound 3.16 µM
[36] = second compound 10 µM, first compound 10 µM
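Also: spheroids exposed to compounds for seven days before readout.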

`CCCS(=O)(=O)Nc1ccc(F)c(C(=O)c2c[nH]c3ncc(-c4ccc(Cl)cc4)cc23)c1F` + COC1C(OC(N)=O)C(O)C(Oc2ccc3c(O)c(NC(=O)c4ccc(O)c(CC=C(C)C)c4)c(=O)oc3c2C)OC1(C)C showed an IC50 (second compound 0.0316 µM) of 5650 nM, an IC50 (second compound 0.1 µM) of 6170 nM and an IC50 (second compound 0.316 µM) of 5040 nM. The IC50 (second compound 1 µM) was 5740 nM, the IC50 (second compound 3.16 µM) was 5750 nM and the IC50 (second compound 10 µM) was 6760 nM. For the same molecule, the viability, T/C [1] was 73.7%, the viability, T/C [2] was 113% and the viability, T/C [3] was 96.1%. The viability, T/C [4] was 117%, the viability, T/C [5] was 85% and the viability, T/C [6] was 15.7%. The viability, T/C [7] was 96.9%, the viability, T/C [8] was 112% and the viability, T/C [9] was 107%. It also gave a viability, T/C [10] of 109%, a viability, T/C [11] of 103% and a viability, T/C [12] of 12.1%. For the same molecule, the viability, T/C [13] was 132%, the viability, T/C [14] was 121% and the viability, T/C [15] was 76.7%. The viability, T/C [16] was 99.8%, the viability, T/C [17] was 85% and the viability, T/C [18] was 12.4%. The viability, T/C [19] was 108%, the viability, T/C [20] was 77.6% and the viability, T/C [21] was 121%. It also gave a viability, T/C [22] of 94.5%, a viability, T/C [23] of 89.9% and a viability, T/C [24] of 13.3%. It also gave a viability, T/C [25] of 108%, a viability, T/C [26] of 117% and a viability, T/C [27] of 101%. It also gave a viability, T/C [28] of 95.5%, a viability, T/C [29] of 89.2% and a viability, T/C [30] of 16.6%. For the same molecule, the viability, T/C [31] was 93.9%, the viability, T/C [32] was 83.7% and the viability, T/C [33] was 93.7%. It also gave a viability, T/C [34] of 82.5%, a viability, T/C [35] of 87.1% and a viability, T/C [36] of 30.9%.
Molecule `CC1COCCN1c1cc(-c2ccnn2C)c2ccnc(-c3ccn[nH]3)c2n1` (stereo unspecified) + COC1C(OC(N)=O)C(O)C(Oc2ccc3c(O)c(NC(=O)c4ccc(O)c(CC=C(C)C)c4)c(=O)oc3c2C)OC1(C)C has an IC50 (second compound 0.0316 µM) of 209 nM, an IC50 (second compound 0.1 µM) of 282 nM and an IC50 (second compound 0.316 µM) of 157 nM. It also gave an IC50 (second compound 1 µM) of 257 nM, an IC50 (second compound 3.16 µM) of 170 nM and an IC50 (second compound 10 µM) of 311 nM. The viability, T/C [1] was 89.2%, the viability, T/C [2] was 66.2% and the viability, T/C [3] was 40.3%. The viability, T/C [4] was 35.8%, the viability, T/C [5] was 39.2% and the viability, T/C [6] was 48.6%. The viability, T/C [7] was 80.3%, the viability, T/C [8] was 77.6% and the viability, T/C [9] was 47.2%. It also gave a viability, T/C [10] of 30.7%, a viability, T/C [11] of 41.6% and a viability, T/C [12] of 52.8%. It also gave a viability, T/C [13] of 71.9%, a viability, T/C [14] of 55.7% and a viability, T/C [15] of 41.2%. The viability, T/C [16] was 37.1%, the viability, T/C [17] was 34.2% and the viability, T/C [18] was 51.7%. The viability, T/C [19] was 58.1%, the viability, T/C [20] was 73.3% and the viability, T/C [21] was 46.4%. It also gave a viability, T/C [22] of 33.6%, a viability, T/C [23] of 56.2% and a viability, T/C [24] of 50%. The viability, T/C [25] was 76.4%, the viability, T/C [26] was 57.5% and the viability, T/C [27] was 40.6%. For the same molecule, the viability, T/C [28] was 37%, the viability, T/C [29] was 38% and the viability, T/C [30] was 48.7%. For the same molecule, the viability, T/C [31] was 65.2%, the viability, T/C [32] was 63.2% and the viability, T/C [33] was 50.1%. For the same molecule, the viability, T/C [34] was 39.2%, the viability, T/C [35] was 49.1% and the viability, T/C [36] was 50.3%.
`COc1cccc(OCCCN)c1-c1cc(Nc2cnc(C#N)cn2)n[nH]1` + Cc1cccc(N(C)C(=O)C2C(O)CCN2c2nc(C)cc(C(F)(F)F)c2C#N)c1 showed an IC50 (second compound 0.0316 µM) of 763 nM, an IC50 (second compound 0.1 µM) greater than 1000 nM and an IC50 (second compound 0.316 µM) greater than 1000 nM. The IC50 (second compound 1 µM) was greater than 1000 nM, the IC50 (second compound 3.16 µM) was 511 nM and the IC50 (second compound 10 µM) was greater than 1000 nM. The viability, T/C (second compound 0.0316 µM, first compound 0.00316 µM) was 96.2%, the viability, T/C (second compound 0.0316 µM, first compound 0.01 µM) was 94.5% and the viability, T/C [1] was 97%. It also gave a viability, T/C [2] of 86.9%, a viability, T/C [3] of 64.6% and a viability, T/C [4] of 45.5%. It also gave a viability, T/C (second compound 0.1 µM, first compound 0.00316 µM) of 105%, a viability, T/C (second compound 0.1 µM, first compound 0.01 µM) of 84.2% and a viability, T/C [7] of 89.2%. It also gave a viability, T/C [8] of 73%, a viability, T/C [9] of 66.3% and a viability, T/C [10] of 50.7%. It also gave a viability, T/C (second compound 0.316 µM, first compound 0.00316 µM) of 102%, a viability, T/C (second compound 0.316 µM, first compound 0.01 µM) of 99.8% and a viability, T/C [13] of 90.9%. For the same molecule, the viability, T/C [14] was 56.8%, the viability, T/C [15] was 61% and the viability, T/C [16] was 55.5%. The viability, T/C (second compound 1 µM, first compound 0.00316 µM) was 110%, the viability, T/C (second compound 1 µM, first compound 0.01 µM) was 96.3% and the viability, T/C [19] was 85.6%. It also gave a viability, T/C [20] of 83%, a viability, T/C [21] of 56.4% and a viability, T/C [22] of 52.9%. The viability, T/C (second compound 3.16 µM, first compound 0.00316 µM) was 98.7%, the viability, T/C (second compound 3.16 µM, first compound 0.01 µM) was 110% and the viability, T/C [25] was 81.8%. For the same molecule, the viability, T/C [26] was 69.6%, the viability, T/C [27] was 59.9% and the viability, T/C [28] was 40.7%. The viability, T/C (second compound 10 µM, first compound 0.00316 µM) was 90.8%, the viability, T/C (second compound 10 µM, first compound 0.01 µM) was 86.5% and the viability, T/C [31] was 77.4%. The viability, T/C [32] was 67.9%, the viability, T/C [33] was 61.2% and the viability, T/C [34] was 52.5%.
